For one data set, the system named is HeLa CD4 LTR β-gal cells. The data set is described as follows: Compound toxicity in attachment assay (MTS dye reduction, sister plates). The class given is cell-based. As to the method: At assay termination the assay plates were stained with the soluble tetrazolium-based dye MTS (CellTiter96® Reagent Promega) to determine cell viability and quantify compound toxicity. MTS is metabolized by the mitochondria enzymes of metabolically active cells to a soluble formazan product, allowing the rapid quantitative analysis cell viability and compound cytotoxicity. […] At termination of the assay 20 μL of MTS reagent was added per well and incubated for 4 h at 37° C. Adhesive plate sealers were used in place of the lids, the sealed plate was inverted several times to mix the soluble formazan product and the plate was read spectrophotometrically at 490 nm with a Molecular Devices Vmax plate reader.
(§1) The attachment assay was performed with the HeLa CD4 LTR , β-gal cells available from the AIDS Research and Reference Reagent Repository. […] HeLa CD4 LTR β-gal cells express cell surface CD4 and contain an LTR β-galactosidase reporter construct. Upon infection either the Tat protein incorporated into the virion or new Tat produced following virus integration and transcription trans-activates the LTR β-gal reporter, leading to expression of the β-galactosidase enzyme. HeLa CD4 LTR β-gal cells are routinely cultured with the required selection antibiotics and screened for mycoplasma contamination. Twenty-four h prior to initiation of the assay cells were trypsinized, counted and 1×10^4 cells placed in a 0.2 cm well in media without selection antibiotics. Media was removed at 24 h and compound in media placed on the cells and incubated for 15 to 30 min at 37° C. A known titer of virus was then added to the wells and the incubation continued for 1 h. At the end of the incubation the wells were washed 6 times with media and the culture continued for 48 h. At 48 h the wells were washed one time with PBS and β-galactosidase enzyme expression determined by chemiluminescence per manufacturers instructions (Tropix Gal-screen™, Tropix, Bedford, Mass.). Compound toxicity was monitored on sister plates using MTS dye reduction.
For orientation: Tetrazolium assays rely on reduction of a dye to a coloured formazan, in cell work by metabolically active cells.

The subject of data set [1] is HIV-1. The data set is described as follows: HeLa CD4 LTR β-gal/HL2/3 HIV-1 fusion assay. In kind it is cell-based. As to conditions: Human immunodeficiency virus 1, HL2/3, read-out: Antiviral Activity IC50. The source says: This assay uses the HeLa CD4 LTR β-gal and HL2-3 cells available from the AIDS Research and Reference Reagent Repository. The HL2/3 are derived from HeLa cells and engineered to express HIV gp120 on their cell surface and Tat protein in their cytoplasma. Thus following gp 120/CD4/coreceptor-mediated fusion; cytoplasmic mixing results in the HL2/3 cell-derived Tat trans-activation of the β-galactosidase reporter. […] Twenty-four h prior to initiation of the assay cells were trypsinized, counted and 5×10^3 cells placed in a 0.2 cm well in media without selection antibiotics. To initiate the fusion assay HeLa CD4 LTR β-gal (5×10^3 cells per 0.2 cm well) were incubated with compound for 1 h at 37° C. HL2/3 cells (5×10^3) were added to the 0.2 cm well and the incubation continued for 48 h. At 48 h the wells were washed 1 time with PBS and β-galactosidase enzyme expression determined by chemiluminescence per manufacturers instructions (Tropix Gal-screen™, Tropix, Bedford, Mass.). Compound toxicity was monitored on sister plates using MTS dye reduction.

The test system of data set [2] is HIV-1. The experiment in a line: HeLa CD4 LTR β-gal HIV-1 attachment assay. The class given is cell-based. To be noted: Human immunodeficiency virus 1, HeLa, read-out: IC50. The method, then: as §1, with “Media was removed at 24 h and compound in media placed on the cells and incubated for 15 to 30 min at 37° C.” left out
The test system of data set [3] is PBMCs. The experiment in a line: PBMC apoptosis by flow cytometry (APO-BRDU kit). The class given is cell-based, Human. As to the method: Flow cytometry studies were carried out on PHA/IL-2 induced PBMCs treated for 6 days with the various test compounds. Prior to flow cytometry the PBMCs were washed, counted and 1×10^6 cells resuspended in PBS and stained for CD4 or CD8 surface markers using anti-CD4.PE or CD8.PE (both from PharMingen) for 30 min at 4° C. The PBMC were then washed, fixed (Cytofix) and permeabilized (Cytoperm) followed by staining for apoptosis-related DNA damage. Initial experiments used the BrdU Flow Kit from PharMigen (2354KK). […] For both kits, manufacturers instructions were followed for staining and analysis of the samples. Following the appropriate staining protocol the cells were analyzed using a Becton Dickinson (Bedford, Mass.) FACSSort
In another series of experiments, the IG compounds and cannabidiol treated cells were assessed for the induction of apoptosis (see Tables 8 and 9). […] As IL-2 is an essential component for maintaining the health of PHA induced PBMCs, a second focus of these studies focuses on the effect of the compounds in the absence of IL-2.

Data set [4] has as its system PBMCs. The data set is described as follows: PBMC cytotoxicity in time-of-addition assay. In kind it is cell-based, Human. The source says: (§2) Human peripheral blood mononuclear cells from a minimum of 2 donors, that have been blasted with PHA and IL-2, were counted, viability determined by Trypan Blue dye exclusion and mixed in equal ratios. Pooled donors were used to minimize the variability observed between individual donors which results from quantitative and qualitative differences in HIV infection and overall response to the PHA and IL-2 of primary lymphocyte populations. The cells were resuspended at 1×10^6 cells/mL in RPMI 1640 without phenol red supplemented with 15% Fetal Bovine Serum (heat inactivated), 2 mM L-glutamine, 100 U/mL penicillin, 100 μg/mL streptomycin, 10 μg/Ln gentamycin and IL-2 (20 U/mL, R&D Systems, Minneapolis, Minn.). Fifty microliters of cells were then distributed to the inner 60 wells of a 96 well round bottom microtiter culture plate in a standard format developed by the Infectious Disease Research department of Southern Research Institute. Each plate contains cell control wells (cells only), virus control wells (cells plus virus), and experimental wells (drug plus cells plus virus). Alternatively, cells were cultured in T25 cm^2 or T75 cm^2 tissue culture flasks at a starting density of 1×10^6 cells per ml. Serially diluted compounds were added to the microtiter plate or tissue culture flask followed by the appropriate pre-titered strain of HIV-1. For virus replication inhibition experiments the HIV-1 strain RoJo was used. This is a low passage presumable subtype B pediatric isolate with a syncytium inducing (SI) phenotype in MT-2 cells isolated by Southern Research Institute personnel. All samples were assayed in triplicate where possible with an accompanying determination of compound toxicity. The final volume per well in the microtiter plates was 200 μL. The final volume in the tissue culture flask varied depending upon experimental design and flask size. Assays were incubated for 6 days in a humidified atmosphere at 37° C., 5% CO2, after which supernatants were collected, for analysis of RT activity and cell viability by MTS dye reduction. Culture were also examined microscopically, any abnormalities noted, and in the case of tissue culture flasks cell counts and viability determined by Trypan Blue Dye exclusion.
Time-of-addition assays were performed with PBMCs in two ways. For both assays, PBMCs were isolated and cultured under the conditions as described above. Time-of-addition assays were carried out in either a tissue culture flask format (T-75 cm^2) or in microtiter wells. In both cases due to the lack of plastic adherence and heterogeneity of the PBMC population for susceptibility to infection, it was not possible to use complete removal of virus following a timed adsorption to synchronize the infection and limit the assay to a single round of infection. Therefore, serial washing by partial removal of the media was used to reduce the concentration of virus and compound (if required) in the assay. Compound addition in relationship to antiviral activity was either assessed over a short addition interval immediately before or after virus addition or for up to 72 h post infection. For all assays virus replication was assessed at 6 days of culture by determining RT expression in cell-free supernatants. In the tissue culture flask format cells were counted and Trypan Blue Dye exclusion used to monitor compound cytotoxicity. Cell viability in the 96 well microtiter plate format was determined by MTS dye reduction. AZT was used as a positive control.
At assay termination the assay plates were stained with the soluble tetrazolium-based dye MTS (CellTiter96® Reagent Promega) to determine cell viability and quantify compound toxicity. MTS is metabolized by the mitochondria enzymes of metabolically active cells to a soluble formazan product, allowing the rapid quantitative analysis cell viability and compound cytotoxicity. […] At termination of the assay 20 μL of MTS reagent was added per well and incubated for 4 h at 37° C. […]

The next data set has as its system HIV-1 strain RoJo. The data set is described as follows: PBMC time-of-addition assay (RT in cell-free supernatant at 6 days). The class given is cell-based. The method, then:
Peripheral blood monocular cells (PBMCs) were obtained from normal hepatitis and HIV-1 negative donors by ficoll hypaque gradient separation. The mononuclear cells were washed to remove residual separation media, counted, viability determined and resuspended in RPMI 1640 medium supplemented with 15 % FBS (heat inactivated), 2 mM L-glutamine, 100 U/mL penicillin, 100 μg/mL streptomycin, and 10 μg/mL gentamycin with 2 μg/mL phytohemagluttin (PHA) at 1×10^6 cells/mL. The cells were cultured for 48 to 72 h at 37° C., 5% CO2. Following incubation, cells were collected by centrifugation, washed and resuspended in RPMI 1640 supplemented with 15% FBS (heat inactivated), 2 mM L-glutamine, 100 U/mL penicillin, 100 μg/mL streptomycin, and 10 μg/mL gentamycin with 20 U/mL recombinant IL-2 (R & D Systems, Minneapolis, Minn.). IL-2 was included in the culture medium to maintain the cell division initiated by the PHA mitogenic stimulation, and promote optimal growing conditions for the PBMCs. The cultures were then maintained until use by ½ culture volume change with fresh IL-2 containing medium every 3 days.
as §2
Time-of-addition assays were performed with PBMCs in two ways. For both assays, PBMCs were isolated and cultured under the conditions as described above. Time-of-addition assays were carried out in either a tissue culture flask format (T-75 cm^2) or in microtiter wells. In both cases due to the lack of plastic adherence and heterogeneity of the PBMC population for susceptibility to infection, it was not possible to use complete removal of virus following a timed adsorption to synchronize the infection and limit the assay to a single round of infection. […]

Setting [5] is: IL-2 supplemented media, 1 μM, HIV +.
The mark [6] stands for this setting: IL-2 supplemented media, 1 μM, HIV −.

In brackets after ≈: the same amount, converted by molar mass.

By IC50 is commonly meant the concentration at which inhibition is half-maximal.

Regarding `COc1cc(-c2ccc(/N=N/c3ccc4c(S(=O)(=O)O)cc(S(=O)(=O)O)c(N)c4c3O)c(OC)c2)ccc1/N=N/c1ccc2c(S(=O)(=O)O)cc(S(=O)(=O)O)c(N)c2c1O` [CSB, Chicago Sky Blue, reference compound], the TC50 in the data set on HeLa CD4 LTR β-gal cells (Experiment 1, pretreat 0 h) is over 10 µg/mL; in the data set on HeLa CD4 LTR β-gal cells (Experiment 1, pretreat 4 h), over 10 µg/mL; with HeLa CD4 LTR β-gal cells (Experiment 1, pretreat 24 h), over 10 µg/mL; in the data set with HeLa CD4 LTR β-gal cells (Experiment 2, pretreat 0 h), over 10 µg/mL; in the data set with HeLa CD4 LTR β-gal cells (Experiment 2, pretreat 4 h) it was over 10 µg/mL; with HeLa CD4 LTR β-gal cells (Experiment 2, pretreat 24 h), over 10 µg/mL. Moreover, the IC50 with HIV-1 [1] came out at 1.75 µg/mL (≈ 1.93 µM); in the data set on HIV-1 [2] (Experiment 1, pretreat 0 h), 1.1 µg/mL (≈ 1.22 µM); with HIV-1 [2] (Experiment 1, pretreat 4 h) it was 1.71 µg/mL (≈ 1.89 µM); with HIV-1 [2] (Experiment 1, pretreat 24 h), 1.3 µg/mL (≈ 1.44 µM); with HIV-1 [2] (Experiment 2, pretreat 0 h) it was 0.17 µg/mL (≈ 0.188 µM); in the data set with HIV-1 [2] (Experiment 2, pretreat 4 h) it was 2.11 µg/mL (≈ 2.33 µM). Moreover, the IC50 in the data set with HIV-1 [2] (Experiment 2, pretreat 24 h) turned out to be 4.7 µg/mL (≈ 5.19 µM).
In the case of `Cc1cn([C@H]2C[C@H](N=[N+]=[N-])[C@@H](CO)O2)c(=O)[nH]c1=O` [AZT, reference compound], the “% Apoptosis” value was determined as 13.7% with PBMCs [3] (IL-2 deficient media, 1 μM, HIV +); 15.1% in the data set on PBMCs [3] (IL-2 deficient media, 1 μM, HIV −); 13.3% in the data set on PBMCs [3] (setting [5]); 15.0% in the data set on PBMCs [3] (setting [6]). Moreover, the figures for the “Fold Change” value in the data set with PBMCs [3] (setting [5]) and in the data set with PBMCs [3] (setting [6]) were 0.8 and 1.3, respectively. For the same molecule, the TC50 in the data set on PBMCs [4] (6 h post infection), in the data set with PBMCs [4] (at infection) and in the data set on PBMCs [4] (−4 h pre (relative to infection)) was over 4000 nM each time. The enhancement of activity with HIV-1 strain RoJo (4 h preincubation) is given as 4.6 fold. For the same molecule, the concentration for half-maximal inhibition (IC50) turned out to be 1.3 nM in the data set with HIV-1 strain RoJo (pre-treat 0 h prior to infection), 1.1 nM in the data set on HIV-1 strain RoJo (pre-treat 2 h prior to infection), 1.1 nM with HIV-1 strain RoJo (pre-treat 4 h prior to infection) and 3.1 nM in the data set with HIV-1 strain RoJo (pre-treat 24 h prior to infection).

B1: FAS: positive control (kit and Fas ligand) of the apoptosis procedure (protein, UniProt P48023 130-281, looked up)
Tumor necrosis factor ligand …: QIGHPSPPPEKKELRKVAHLTGKSNSRSMPLEWEDTYGIVLLSGVKYKKGGLVINETGLYFVYSKVYFRGQSCNNLPLSHKVYMRNSKYPQDLVMMEGKMMSYCTTGQMWARSSYLGAVFNLTSADHLYVNVSELSLVNFEESQTFFGLYKL
In the case of B1, the “% Apoptosis” value in the data set on PBMCs [3] (IL-2 deficient media, HIV +, positive control, concentration not given) is 16.2%; in the data set on PBMCs [3] (IL-2 deficient media, HIV −, positive control, concentration not given) it was 13.7%; with PBMCs [3] (IL-2 supplemented media, HIV +, positive control, concentration not given), 17.3%; with PBMCs [3] (IL-2 supplemented media, HIV −, positive control, concentration not given), 17.8%.

For the origin of these results see patent US20040242870A1, “Antiviral methods and compounds” (priority 2000, published 2004).
